We go through 10 compounds from PubChem BioAssay (NCI).

Several values for one entry are separate records, joined by “and”; a condition that tells them apart may be missing. Equal entries are not always repeated.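 Assay format: 96-well plates, 48-hour exposure. GI50 marks 50% less growth. TGI denotes the concentration required for complete inhibition of growth.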 Bounds are passed on as bounds.

Among the test systems are LOX IMVI melanoma; M19-MEL melanoma; MALME-3M melanoma; SNB-78 CNS; DU-145 prostate; MDA-MB-435; SR leukemia; T-47D breast; MDA-N; LXFL 529 NSCLC; RXF-631 renal.
What all share (assay): NCI tumour cell line growth inhibition, 48 h

For `Cc1c2cc[n+](C)cc2c(COC2OC(CO)C(O)C2O)c2c3ccccc3n(C)c12` (stereo not drawn), the TGI is over 100 µM with LOX IMVI melanoma, over 100 µM in the experiment with M19-MEL melanoma, 98.4 µM in the experiment on MALME-3M melanoma and over 100 µM in the experiment on SNB-78 CNS.

For the compound `COc1cc2c(cc1-c1c(C)noc1C)ncc1nc(C3CCCCC3)n(C3CCC(OC(F)F)CC3)c12` (stereo not drawn), in the experiment on DU-145 prostate, the GI50 was 3.52 µM and the TGI is over 100 µM. In the experiment on MDA-MB-435, the GI50 was 2.14 µM and the TGI is over 100 µM.

Take `CC(=O)O[C@H]1C(=O)[C@]2(C)[C@@H](OC(=O)OCC(O)CO)C[C@H]3OC[C@@]3(OC(C)=O)[C@H]2[C@H](OC(=O)c2ccccc2)[C@]2(O)C[C@H](OC(=O)[C@H](O)[C@@H](NC(=O)c3ccccc3)c3ccccc3)C(C)=C1C2(C)C` (stereo partly drawn): the values for the TGI in the experiment on LOX IMVI melanoma and with SR leukemia were 25 µM and 15.8 µM, respectively.

Take `CC(=O)OC1CC2(O)C(CCC3(C)C(c4ccc(=O)oc4)CCC32O)C2(C)CCC(O)C=C12` (stereo not drawn): the GI50 in the experiment on LOX IMVI melanoma is 0.0375 µM; with M19-MEL melanoma it was 0.0375 µM; in the experiment with MALME-3M melanoma, 0.0112 µM; in the experiment on SNB-78 CNS it was 0.0375 µM. The TGI in the experiment on LOX IMVI melanoma is 0.126 µM and 0.0573 µM; in the experiment on M19-MEL melanoma it was 0.187 µM and 0.111 µM; with MALME-3M melanoma, 0.0469 µM; in the experiment on SNB-78 CNS, 0.47 µM and 0.0866 µM.

As to `CC(C)(C)CC(C)(C)Cc1ccc(OCCOCC[N+](C)(C)Cc2ccccc2)cc1`, the GI50 with DU-145 prostate was 3.68 µM; in the experiment with MDA-MB-435, 1.33 µM; in the experiment on T-47D breast it was 1.41 µM. In addition, the TGI in the experiment on DU-145 prostate turned out to be 13.8 µM; with MDA-MB-435, 2.66 µM; in the experiment with T-47D breast, 3.94 µM.

Turning to `Cc1c2cc[n+](C)cc2c(C)c2c1[nH]c1ccc(O)cc12`, the TGI in the experiment with DU-145 prostate was 74.7 µM; with LOX IMVI melanoma it was over 96.4 µM; in the experiment on M19-MEL melanoma, 48 µM; in the experiment with MALME-3M melanoma, 26.4 µM; in the experiment with MDA-MB-435, over 100 µM; in the experiment on MDA-N it was over 100 µM. Moreover, the figures for the TGI in the experiment with SNB-78 CNS and in the experiment on T-47D breast were over 100 µM and 11 µM, respectively.

For the compound `CCOC(=O)c1c(NC(=S)NCc2ccccc2)sc2c1CCN(C)C2`, the TGI with DU-145 prostate, with MDA-N and in the experiment on T-47D breast was over 100 µM each time.

For `O=c1c(-c2ccccc2)c[nH]c2cc([N+](=O)[O-])c(/C(Cl)=C/c3ccccc3)cc12`, the values for the TGI in the experiment with LOX IMVI melanoma, in the experiment on M19-MEL melanoma and in the experiment on SNB-78 CNS were over 22.5 µM, over 42.5 µM and over 27 µM, respectively.

Regarding `COc1cccc2c1C(=O)c1c(O)c3c(c(O)c1C2=O)C[C@@](O)(C(C)=O)C[C@@H]3OC1CC(N)C(O)C(C)O1` (stereo partly drawn), the TGI with LXFL 529 NSCLC was 1.48 µM and 1.36 µM and > 5.01 µM; in the experiment with RXF-631 renal it was 3.12 µM and 4.25 µM; with SNB-78 CNS it was 2.49 µM and 3.43 µM; in the experiment on SR leukemia it was 0.239 µM and 0.908 µM. Further, the GI50 was over 5.01 µM with M19-MEL melanoma; 0.0877 µM in the experiment with MDA-MB-435; 0.212 µM in the experiment with RXF-631 renal; 0.184 µM in the experiment on SNB-78 CNS; under 0.0176 µM in the experiment on T-47D breast.

For `CN1CCN(c2ccc3nc(-c4ccc(OCCCN5C(=O)c6cccc7cccc(c67)C5=O)cc4)[nH]c3c2)CC1`, the GI50 in the experiment with MALME-3M melanoma was 4.43 µM; in the experiment on SR leukemia, 2.69 µM; in the experiment on T-47D breast, 4.8 µM. For the same compound, the results for the TGI in the experiment on MALME-3M melanoma, in the experiment with SR leukemia and in the experiment with T-47D breast were over 30.8 µM, 5.94 µM and 34.3 µM, respectively.
